The test system of one test is MCF-7. The test is described as follows: Antiproliferative MTT assay, MCF-7. The format is cell-based, human. Conditions: Homo sapiens, MCF7, read-out: Antiproliferative activity IC50 ± SEM, MCF-7.
Another test deals with PC-3. The test can be described thus: Antiproliferative MTT assay, PC-3. The format is cell-based. Conditions: Homo sapiens, PC-3, read-out: Antiproliferative activity IC50 ± SEM, PC-3.
The next test relates to HCT-116. The test is described as follows: Antiproliferative MTT assay, HCT-116. The format is cell-based. Conditions: Homo sapiens, HCT-116, read-out: Antiproliferative activity IC50 ± SEM, HCT-116.
The subject of test [1] is four human cancer cell lines (HCT-116, PC-3, MCF-7, MDAMB-231). The test can be described thus: Antiproliferative MTT assay, average over four cancer cell lines. Conditions: for GI50: average IC50 of the four cancer cell lines; for fold less potent than compound 4n (GI50): ratio of GI50 values. Format: cell-based.

For `COc1ccc(N2CCN(CC(=O)Nc3ccc(C(=O)C=Cc4ccccc4)cc3)CC2)cc1` [4a, N-(4-Cinnamoylphenyl)-2-(4-(4-methoxyphenyl)piperazin-1-yl)acetamide], the IC50 was determined as 72.4 ± 3.7 µM in the test with MCF-7, 78.2 ± 4 µM with PC-3 and 68.6 ± 3.7 µM with HCT-116.

For `COc1ccc(N2CCN(CC(=O)Nc3ccc(C(=O)C=Cc4ccc(C)cc4)cc3)CC2)cc1` [4b, 2-(4-(4-Methoxyphenyl)piperazin-1-yl)-N-(4-(3-(p-tolyl)acryloyl)phenyl)acetamide], the IC50 with MCF-7 came to 65.5 ± 3.5 µM; with PC-3 it was 32 ± 2.1 µM; in the test on HCT-116, 79.6 ± 3.8 µM.

Turning to `COc1ccc(C=CC(=O)c2ccc(NC(=O)CN3CCN(c4ccc(OC)cc4)CC3)cc2)cc1` [4c, N-(4-(3-(4-Methoxyphenyl)acryloyl)phenyl)-2-(4-(4-methoxyphenyl)piperazin-1-yl)acetamide], the IC50 in the test with MCF-7 turned out to be 28.3 ± 1.8 µM; with PC-3 it was 34.5 ± 2.1 µM; in the test with HCT-116 it was 18.1 ± 1.4 µM.

As to `COc1ccc(N2CCN(CC(=O)Nc3ccc(C(=O)C=Cc4cc(OC)c(OC)c(OC)c4)cc3)CC2)cc1` [4d, 2-(4-(4-Methoxyphenyl)piperazin-1-yl)-N-(4-(3-(3,4,5-trimethoxyphenyl)acryloyl)phenyl)acetamide], the IC50 in the test on MCF-7 was determined as 24.2 ± 1.7 µM; in the test with PC-3, 61.4 ± 3.5 µM; in the test on HCT-116, 29.1 ± 1.9 µM.

Consider `COc1ccc(N2CCN(CC(=O)Nc3ccc(C(=O)C=Cc4ccc(Br)cc4)cc3)CC2)cc1` [4e, N-(4-(3-(4-Bromophenyl)acryloyl)phenyl)-2-(4-(4-methoxyphenyl)piperazin-1-yl)acetamide], for which the 50% inhibitory concentration (IC50) with MCF-7 worked out at 52.5 ± 2.9 µM; in the test on PC-3, 73.9 ± 3.8 µM; in the test with HCT-116 it was 64.8 ± 3.5 µM.

Consider `COc1ccc(N2CCN(CC(=O)Nc3ccc(C(=O)C=Cc4ccc(Cl)cc4Cl)cc3)CC2)cc1` [4f, N-(4-(3-(2,4-Dichlorophenyl)acryloyl)phenyl)-2-(4-(4-methoxyphenyl)piperazin-1-yl)acetamide], for which the concentration for half-maximal inhibition (IC50) with MCF-7, in the test on PC-3 and in the test with HCT-116 was > 100 µM in each case.

As to `O=C(CN1CCN(c2ccc(Cl)cc2)CC1)Nc1ccc(C(=O)C=Cc2ccccc2)cc1` [4h, 2-(4-(4-Chlorophenyl)piperazin-1-yl)-N-(4-cinnamoylphenyl)acetamide], the IC50 worked out at 41.3 ± 2.4 µM with MCF-7, 20.4 ± 1.5 µM in the test with PC-3 and 49.6 ± 2.8 µM with HCT-116.

For the compound `Cc1ccc(C=CC(=O)c2ccc(NC(=O)CN3CCN(c4ccc(Cl)cc4)CC3)cc2)cc1` [4i, 2-(4-(4-Chlorophenyl)piperazin-1-yl)-N-(4-(3-(p-tolyl)acryloyl)phenyl)acetamide], the values for the IC50 with MCF-7, in the test with PC-3 and with HCT-116 were 91.6 ± 4.6 µM, > 100 µM and 86.1 ± 4.3 µM, respectively. Moreover, growth in test [1] (Homo sapiens) was halved (GI50) at 90 µM. Besides, in test [1], the “fold less potent than compound 4n (GI50)” value was determined as 13.

As to `COc1ccc(C=CC(=O)c2ccc(NC(=O)CN3CCN(c4ccc(Cl)cc4)CC3)cc2)cc1` [4j, 2-(4-(4-Chlorophenyl)piperazin-1-yl)-N-(4-(3-(4-methoxyphenyl)acryloyl)phenyl)acetamide], the IC50 came to 42.9 ± 2.5 µM in the test with MCF-7, 66.8 ± 3.5 µM in the test on PC-3 and 27.4 ± 1.9 µM with HCT-116.

With `COc1cc(C=CC(=O)c2ccc(NC(=O)CN3CCN(c4ccc(Cl)cc4)CC3)cc2)cc(OC)c1OC` [4k, 2-(4-(4-Chlorophenyl)piperazin-1-yl)-N-(4-(3-(3,4,5-trimethoxyphenyl)acryloyl)phenyl)acetamide], the results for the IC50 in the test with MCF-7, in the test on PC-3 and in the test on HCT-116 were 17.9 ± 1.4 µM, 42.9 ± 2.5 µM and 34.8 ± 2.2 µM, respectively.

As to `O=C(CN1CCN(c2ccc(Cl)cc2)CC1)Nc1ccc(C(=O)C=Cc2ccc(Br)cc2)cc1` [4l, N-(4-(3-(4-Bromophenyl)acryloyl)phenyl)-2-(4-(4-chlorophenyl)piperazin-1-yl)acetamide], the IC50 amounted to 80.8 ± 3.9 µM in the test on MCF-7, 86.4 ± 4.3 µM in the test on PC-3 and 75.4 ± 4.1 µM in the test with HCT-116. The same compound registered a GI50 in test [1] (Homo sapiens) of 76 µM. In test [1], the “fold less potent than compound 4n (GI50)” value is 11.

On to `O=C(CN1CCN(c2ccc(Cl)cc2)CC1)Nc1ccc(C(=O)C=Cc2ccc(Cl)cc2Cl)cc1` [4m, 2-(4-(4-Chlorophenyl)piperazin-1-yl)-N-(4-(3-(2,4dichlorophenyl)acryloyl)phenyl)acetamide], for which the results for the IC50 in the test with MCF-7, in the test on PC-3 and with HCT-116 were 35.8 ± 2.2 µM, 55.2 ± 3.2 µM and 44.8 ± 2.6 µM, respectively.

`COc1ccc(N2CCN(CC(=O)Nc3ccc(C4=NN(C(C)=O)C(c5ccccc5)C4)cc3)CC2)cc1` (centres unmarked) [5a, N-(4-(1-Acetyl-5-phenyl-4,5-dihydro-1H-pyrazol-3-yl)phenyl)-2-(4-(4-methoxyphenyl)piperazin-1-yl)acetamide]: the IC50 in the test with MCF-7 was 19.6 ± 1.4 µM; in the test with PC-3 it was 46.3 ± 2.5 µM; in the test with HCT-116, 32.1 ± 2.1 µM.

For `COc1ccc(N2CCN(CC(=O)Nc3ccc(C4=NN(C(C)=O)C(c5ccc(C)cc5)C4)cc3)CC2)cc1` (centres unmarked) [5b, N-(4-(1-Acetyl-5-(p-tolyl)-4,5-dihydro-1H-pyrazol-3-yl)phenyl)-2-(4-(4-methoxy-phenyl)piperazin-1-yl)acetamide], the IC50 came to 13.8 ± 1.1 µM with MCF-7, 21.9 ± 1.6 µM with PC-3 and 24.9 ± 1.8 µM with HCT-116. In test [1] (Homo sapiens), this compound gave a concentration for 50% growth inhibition (GI50) of 18 µM.

In the case of `COc1ccc(C2CC(c3ccc(NC(=O)CN4CCN(c5ccc(OC)cc5)CC4)cc3)=NN2C(C)=O)cc1` (centres unmarked) [5c, N-(4-(1-Acetyl-5-(4-methoxyphenyl)-4,5-dihydro-1H-pyrazol-3-yl)phenyl)-2-(4-(4-methoxyphenyl)piperazin-1-yl)acetamide], the IC50 in the test on MCF-7 came out at 9.68 ± 0.8 µM; with PC-3, 16.2 ± 1.3 µM; with HCT-116 it was 18.6 ± 1.5 µM. In test [1] (Homo sapiens), this compound gave a GI50 of 13 µM.

Consider `COc1ccc(N2CCN(CC(=O)Nc3ccc(C4=NN(C(C)=O)C(c5ccc(Br)cc5)C4)cc3)CC2)cc1` (centres unmarked) [5e, N-(4-(1-Acetyl-5-(4-bromophenyl)-4,5-dihydro-1H-pyrazol-3-yl)phenyl)-2-(4-(4-methoxyphenyl)piperazin-1-yl)acetamide], for which the IC50 stood at 15.2 ± 1.3 µM in the test with MCF-7, 29.6 ± 1.9 µM in the test on PC-3 and 26.8 ± 2 µM in the test on HCT-116.

As to `COc1ccc(N2CCN(CC(=O)Nc3ccc(C4=NN(C(C)=O)C(c5ccc(Cl)cc5Cl)C4)cc3)CC2)cc1` (centres unmarked) [5f, N-(4-(1-Acetyl-5-(2,4-dichlorophenyl)-4,5-dihydro-1H-pyrazol-3-yl)phenyl)-2-(4-(4-methoxyphenyl)piperazin-1-yl)acetamide], the IC50 stood at 47.5 ± 2.6 µM in the test with MCF-7, 57.8 ± 3.3 µM with PC-3 and 54 ± 3.2 µM in the test on HCT-116.

For `CC(=O)N1N=C(c2ccc(NC(=O)CN3CCN(c4ccc(Cl)cc4)CC3)cc2)CC1c1ccccc1` (centres unmarked) [5h, N-(4-(1-Acetyl-5-phenyl-4,5-dihydro-1H-pyrazol-3-yl)phenyl)-2-(4-(4-chloro-phenyl)piperazin-1-yl)acetamide], the IC50 came to 85.4 ± 4.6 µM in the test with MCF-7, 87.6 ± 4.3 µM in the test on PC-3 and 74.9 ± 4.1 µM in the test with HCT-116.

Take `CC(=O)N1N=C(c2ccc(NC(=O)CN3CCN(c4ccc(Cl)cc4)CC3)cc2)CC1c1ccc(C)cc1` (centres unmarked) [5i, N-(4-(1-Acetyl-5-(p-tolyl)-4,5-dihydro-1H-pyrazol-3-yl)phenyl)-2-(4-(4-chloro-phenyl)piperazin-1-yl)acetamide]: the IC50 with MCF-7 stood at 54.7 ± 3.1 µM; in the test with PC-3, 67.8 ± 3.6 µM; with HCT-116, 62.5 ± 3.4 µM.

Consider `COc1ccc(C2CC(c3ccc(NC(=O)CN4CCN(c5ccc(Cl)cc5)CC4)cc3)=NN2C(C)=O)cc1` (centres unmarked) [5j, N-(4-(1-Acetyl-5-(4-methoxyphenyl)-4,5-dihydro-1H-pyrazol-3-yl)phenyl)-2-(4-(4-chlorophenyl)piperazin-1-yl)acetamide], for which the IC50 in the test with MCF-7 was 94 ± 4.9 µM; with PC-3 it was > 100 µM; in the test with HCT-116 it was > 100 µM. This compound had a GI50 in test [1] (Homo sapiens) of 100 µM.

Take `COc1cc(C2CC(c3ccc(NC(=O)CN4CCN(c5ccc(Cl)cc5)CC4)cc3)=NN2C(C)=O)cc(OC)c1OC` (centres unmarked) [5k, N-(4-(1-Acetyl-5-(3,4,5-trimethoxyphenyl)-4,5-dihydro-1H-pyrazol-3-yl)phenyl)-2-(4-(4-chlorophenyl)piperazin-1-yl)acetamide]: the figures for the IC50 in the test on MCF-7, in the test with PC-3 and with HCT-116 were 40.8 ± 2.4 µM, 45.7 ± 2.6 µM and 52.8 ± 3 µM, respectively.

In the case of `CC(=O)N1N=C(c2ccc(NC(=O)CN3CCN(c4ccc(Cl)cc4)CC3)cc2)CC1c1ccc(Cl)cc1Cl` (centres unmarked) [5m, N-(4-(1-Acetyl-5-(2,4-dichlorophenyl)-4,5-dihydro-1H-pyrazol-3-yl)phenyl)-2-(4-(4-chlorophenyl)piperazin-1-yl)acetamide], the IC50 stood at 71.3 ± 3.6 µM in the test on MCF-7, 76.7 ± 3.9 µM in the test on PC-3 and 69.9 ± 3.7 µM with HCT-116.

For the compound `CC(=O)N1N=C(c2ccc(NC(=O)CN3CCN(c4ccc(Cl)cc4)CC3)cc2)CC1c1ccco1` (centres unmarked) [5n, N-(4-(1-Acetyl-5-(furan-2-yl)-4,5-dihydro-1H-pyrazol-3-yl)phenyl)-2-(4-(4-chlorophenyl)piperazin-1-yl)acetamide], the IC50 in the test with MCF-7 was determined as 23.9 ± 1.7 µM; in the test with PC-3, 36.8 ± 2.2 µM; in the test with HCT-116, 39.6 ± 2.3 µM.

For the compound `COc1cccc2c1C(=O)c1c(O)c3c(c(O)c1C2=O)C[C@@](O)(C(=O)CO)C[C@@H]3O[C@H]1C[C@H](N)[C@H](O)[C@H](C)O1` [Doxorubicin, reference compound], in test [1] (Homo sapiens), the GI50 came out at 5 µM.

Consider `CNC(=O)c1cc(Oc2ccc(NC(=O)Nc3ccc(Cl)c(C(F)(F)F)c3)cc2)ccn1` [Sorafenib, reference compound], for which the concentration for half-maximal inhibition (IC50) with PC-3 came out at 11.5 ± 0.9 µM. Besides, the GI50 is 8 µM in test [1] (Homo sapiens) and 7 µM in test [1].

These data come from PMC11951252 (RSC Advances, 2025).
